This note sets out measurements from publication PMC12376244 (Chembiochem, 2025).

The test system of assay [1] is CmSTC1. Kind of assay: malachite green phosphate release assay, coupled to yeast pyrophosphatase. Format: biochemical, Cubamyces menziesii. The conditions noted are these: 5 mM MgCl2, Tris-HCl/MES/CAPS buffer, pH 7.8; FDP range 3.125 to 50 or 75 μM.
The test system of assay [2] is CmSTC3. The description is as above. Format: biochemical, Cubamyces menziesii. The conditions noted are these: 5 mM MgCl2, Tris-HCl/MES/CAPS buffer, pH 7.8; FDP range 3.125 to 50 or 75 μM.

The Km is the substrate concentration at which the rate is half of its maximum. For the molecule `CC(C)=CCC/C(C)=C/CC/C(C)=C/COP(=O)(O)OP(=O)(O)O` [FDP], the results for the Michaelis constant (Km) in assay [1] and in assay [2] were 68.2 µM and 19.9 µM, respectively.
